Measured values published in ChEMBL document CHEMBL1909046, “DrugMatrix in vitro pharmacology data”.

Assays:
[1] = biological target: Sodium-dependent dopamine transporter (Homo sapiens, UniProt Q01959); test: DRUGMATRIX: Dopamine Transporter radioligand binding (ligand: [125I] RTI-55); assay type: cell membranes, CHO-K1, Membrane; conditions: Not Active = under 50% inhibition at 10 µM; for Ki: read-out: Ki
[2] = biological target: Protein kinase C alpha type (Homo sapiens, UniProt P17252); assay type: cell-based; conditions: sf9;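 also: inhibition of PKCalpha kinase activity measured in an enzyme assay with histone as the phosphorylation substrate; in other assays of this panel Not Active means under 50% inhibition at 10 µM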
Glycine receptor = Glycine receptor (Rattus norvegicus, UniProt P22771+P24524+P07727+P20781); assay type: cell membranes, Wistar, Spinal cord, Membrane; also: in other assays of this panel Not Active means under 50% inhibition at 10 µM
[3] = DRUGMATRIX: GABAA, Muscimol, Central radioligand binding (ligand: [3H] Muscimol); assay type: cell membranes, Rattus norvegicus, Wistar, Brain, Membrane; conditions: Not Active = under 50% inhibition at 10 µM
[4] = biological target: T1, Type-2 angiotensin II receptor (Homo sapiens, UniProt P50052); test: biochemical; assay type: cell-based, CHO-K1; conditions: cho-k1; also: in other assays of this panel Not Active means under 50% inhibition at 10 µM
T1 sequence (P50052 whole entry): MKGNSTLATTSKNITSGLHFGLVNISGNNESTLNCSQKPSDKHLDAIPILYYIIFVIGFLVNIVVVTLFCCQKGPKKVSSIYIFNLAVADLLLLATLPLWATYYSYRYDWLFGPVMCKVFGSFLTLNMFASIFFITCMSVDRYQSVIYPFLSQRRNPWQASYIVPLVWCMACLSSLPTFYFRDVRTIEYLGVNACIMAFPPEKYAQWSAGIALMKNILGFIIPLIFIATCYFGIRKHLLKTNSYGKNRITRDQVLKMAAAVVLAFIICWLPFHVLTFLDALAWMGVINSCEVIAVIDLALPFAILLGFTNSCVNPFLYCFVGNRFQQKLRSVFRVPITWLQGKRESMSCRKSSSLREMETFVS

[5] = biological target: 5-hydroxytryptamine receptor 1B (Rattus norvegicus, UniProt P28564); assay type: cell membranes, Wistar, Cerebral cortex, Membrane; also: in other assays of this panel Not Active means under 50% inhibition at 10 µM
Sequence of 5-hydroxytryptamine receptor 1B (P28564 whole entry): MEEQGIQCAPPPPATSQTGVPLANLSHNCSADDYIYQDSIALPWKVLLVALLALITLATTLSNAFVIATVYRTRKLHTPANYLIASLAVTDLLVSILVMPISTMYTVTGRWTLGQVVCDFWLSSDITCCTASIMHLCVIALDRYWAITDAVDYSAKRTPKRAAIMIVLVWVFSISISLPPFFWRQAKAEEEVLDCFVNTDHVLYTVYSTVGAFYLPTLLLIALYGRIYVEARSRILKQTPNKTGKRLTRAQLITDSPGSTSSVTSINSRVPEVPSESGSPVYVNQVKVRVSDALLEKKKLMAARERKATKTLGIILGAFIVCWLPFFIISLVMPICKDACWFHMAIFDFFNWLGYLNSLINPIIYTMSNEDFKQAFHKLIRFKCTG

[6] = DRUGMATRIX: GABAA, Chloride Channel, TBOB radioligand binding (ligand: [3H] TBOB); assay type: cell membranes, Rattus norvegicus, Wistar, Cerebral cortex, Membrane; conditions: Not Active = under 50% inhibition at 10 µM
[7] = biological target: T2, Cysteinyl leukotriene receptor 1 (Homo sapiens, UniProt Q9Y271); assay type: cell membranes, Membrane; conditions: cho-k1; also: in other assays of this panel Not Active means under 50% inhibition at 10 µM
T2 sequence (Q9Y271 whole entry): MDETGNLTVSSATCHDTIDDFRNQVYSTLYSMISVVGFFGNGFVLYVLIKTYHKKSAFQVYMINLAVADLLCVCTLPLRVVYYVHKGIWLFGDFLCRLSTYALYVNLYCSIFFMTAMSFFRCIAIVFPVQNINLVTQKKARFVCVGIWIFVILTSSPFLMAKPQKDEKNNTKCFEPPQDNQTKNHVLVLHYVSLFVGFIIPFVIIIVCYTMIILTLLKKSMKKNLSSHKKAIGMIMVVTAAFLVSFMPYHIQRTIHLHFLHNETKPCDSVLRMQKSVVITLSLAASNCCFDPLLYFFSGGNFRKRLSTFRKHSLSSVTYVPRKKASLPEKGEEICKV

Sequence of Sodium-dependent dopamine transporter (Q01959 whole entry): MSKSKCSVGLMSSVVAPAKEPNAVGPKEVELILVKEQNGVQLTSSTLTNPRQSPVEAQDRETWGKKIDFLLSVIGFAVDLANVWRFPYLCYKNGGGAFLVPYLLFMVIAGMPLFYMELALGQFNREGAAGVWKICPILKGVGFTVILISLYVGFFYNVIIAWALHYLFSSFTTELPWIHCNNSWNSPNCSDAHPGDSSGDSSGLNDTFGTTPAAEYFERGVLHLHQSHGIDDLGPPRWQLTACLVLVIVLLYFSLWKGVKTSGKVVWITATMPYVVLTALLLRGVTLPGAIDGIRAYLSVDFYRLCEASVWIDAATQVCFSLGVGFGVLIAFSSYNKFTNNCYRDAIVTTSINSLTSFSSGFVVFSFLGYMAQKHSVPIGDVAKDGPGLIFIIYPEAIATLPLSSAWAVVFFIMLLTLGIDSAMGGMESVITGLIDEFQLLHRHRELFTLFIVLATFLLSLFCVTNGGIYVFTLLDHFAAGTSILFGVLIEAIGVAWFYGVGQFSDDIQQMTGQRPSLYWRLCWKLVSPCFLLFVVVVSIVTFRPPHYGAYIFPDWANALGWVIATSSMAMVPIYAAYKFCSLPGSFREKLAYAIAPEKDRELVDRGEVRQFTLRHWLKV

| SMILES | IC50 ([1]; cho-k1) | IC50 [2] | IC50 (Glycine receptor) | IC50 [3] | Ki [3] | IC50 [4] | IC50 [5] | IC50 [6] | Ki [6] | IC50 [7] | IC50 ([1]; read-out: IC50) [µM] | Ki [1] [µM] | IC50 ([5]; read-out: IC50) [µM] | Ki ([5]; read-out: Ki) [µM] |
| --- | --- | --- | --- | --- | --- | --- | --- | --- | --- | --- | --- | --- | --- | --- |
| CCOc1nc2cccc(C(=O)O)c2n1Cc1ccc(-c2ccccc2-c2nnn[nH]2)cc1 | Not Active | Not Active | Not Active | Not Active | Not Active | Not Active | Not Active | Not Active | Not Active | Not Active | – | – | – | – |
| O=C(O)CCCc1cccs1 | Not Active | Not Active | Not Active | Not Active | Not Active | Not Active | Not Active | Not Active | Not Active | Not Active | – | – | – | – |
| COc1ccccc1N | Not Active | Not Active | Not Active | Not Active | Not Active | Not Active | Not Active | Not Active | Not Active | Not Active | – | – | – | – |
| O=C(c1ccccc1F)N1CCC(Cc2ccccc2)CC1 | Not Active | Not Active | Not Active | Not Active | Not Active | Not Active | Not Active | Not Active | Not Active | Not Active | – | – | – | – |
| Cc1c(O)cccc1C(=O)N[C@@H](CSc1ccccc1)[C@H](O)CN1C[C@H]2CCCC[C@H]2C[C@H]1C(=O)NC(C)(C)C | – | Not Active | Not Active | Not Active | Not Active | Not Active | Not Active | Not Active | Not Active | Not Active | 15.5 | 12.3 | – | – |
| CC(O)COC[C@H]1O[C@@H]2O[C@H]3[C@H](O)[C@@H](O)[C@@H](O[C@H]4[C@H](O)[C@@H](O)[C@@H](O[C@H]5[C@H](O)[C@@H](O)[C@@H](O[C@H]6[C@H](O)[C@@H](O)[C@@H](O[C@H]7[C@H](O)[C@@H](O)[C@@H](O[C@H]8[C@H](O)[C@@H](O)[C@@H](O[C@H]1[C@H](O)[C@H]2O)O[C@@H]8COCC(C)O)O[C@@H]7COCC(C)O)O[C@@H]6COCC(C)O)O[C@@H]5COCC(C)O)O[C@@H]4COCC(C)O)O[C@@H]3COCC(C)O (stereo partly drawn) [2-HYDROXYPROPYL-BETA-CYCLODEXTRIN] | – | Not Active | Not Active | Not Active | Not Active | Not Active | Not Active | Not Active | Not Active | Not Active | 1.69 | 1.34 | – | – |
| NC(=O)c1cccc(N)c1 [3-AMINOBENZAMIDE] | Not Active | Not Active | Not Active | Not Active | Not Active | Not Active | Not Active | Not Active | Not Active | Not Active | – | – | – | – |
| C[C@H]1O[C@H](O[C@H]2[C@H](O)[C@@H](O)[C@@H](O[C@H]3[C@H](O)[C@@H](O)C(O)O[C@@H]3CO)O[C@@H]2CO)[C@H](O)[C@@H](O)[C@@H]1N[C@H]1C=C(CO)[C@@H](O)[C@H](O)[C@H]1O (some centres not stated) [ACARBOSE] | Not Active | Not Active | Not Active | Not Active | Not Active | Not Active | Not Active | Not Active | Not Active | Not Active | – | – | – | – |
| CC[C@H]1[C@@H]2C[C@H]3[C@@H]4N(C)c5ccccc5[C@]45C[C@@H]([C@@H]2[C@H]5O)N3[C@@H]1O [AJMALINE] | Not Active | Not Active | Not Active | Not Active | Not Active | Not Active | Not Active | Not Active | Not Active | Not Active | – | – | – | – |
| NC12CC3CC(CC(C3)C1)C2 [AMANTADINE] | Not Active | Not Active | Not Active | Not Active | Not Active | Not Active | Not Active | Not Active | Not Active | Not Active | – | – | – | – |
| NCCCNCCSP(=O)(O)O [AMIFOSTINE] | Not Active | Not Active | Not Active | Not Active | Not Active | Not Active | Not Active | Not Active | Not Active | Not Active | – | – | – | – |
| CN(C)CCC=C1c2ccccc2CCc2ccccc21 [AMITRIPTYLINE] | Not Active | Not Active | Not Active | Not Active | Not Active | Not Active | – | Not Active | Not Active | Not Active | – | – | 3.73 | 1.69 |
| CC(=O)Oc1ccccc1C(=O)O [ASPIRIN] | Not Active | Not Active | Not Active | Not Active | Not Active | Not Active | Not Active | Not Active | Not Active | Not Active | – | – | – | – |
| CC(C)c1c(C(=O)Nc2ccccc2)c(-c2ccccc2)c(-c2ccc(F)cc2)n1CC[C@@H](O)C[C@@H](O)CC(=O)O [ATORVASTATIN] | Not Active | Not Active | Not Active | Not Active | Not Active | Not Active | Not Active | Not Active | Not Active | Not Active | – | – | – | – |
| CC(=O)OC[C@H]1O[C@@H](n2ncc(=O)[nH]c2=O)[C@H](OC(C)=O)[C@@H]1OC(C)=O [AZARIBINE] | Not Active | Not Active | Not Active | Not Active | Not Active | Not Active | Not Active | Not Active | Not Active | Not Active | – | – | – | – |
| C[C@H]1[C@H](NC(=O)/C(=N\OC(C)(C)C(=O)O)c2csc(N)n2)C(=O)N1S(=O)(=O)O [AZTREONAM] | Not Active | Not Active | Not Active | Not Active | Not Active | Not Active | Not Active | Not Active | Not Active | Not Active | – | – | – | – |
| O=C(O)CCNC(=O)c1ccc(/N=N/c2ccc(O)c(C(=O)O)c2)cc1 [BALSALAZIDE] | Not Active | Not Active | Not Active | Not Active | Not Active | Not Active | Not Active | Not Active | Not Active | Not Active | – | – | – | – |
| COc1cc(OC)c(C(=O)CCCN2CCCC2)c(OC)c1 [BUFLOMEDIL] | Not Active | Not Active | Not Active | Not Active | Not Active | Not Active | Not Active | Not Active | Not Active | Not Active | – | – | – | – |
| Cn1c(=O)c2c(ncn2C)n(C)c1=O [CAFFEINE] | Not Active | Not Active | Not Active | Not Active | Not Active | Not Active | Not Active | Not Active | Not Active | Not Active | – | – | – | – |
| ClC(Cl)(Cl)Cl [CARBON TETRACHLORIDE] | Not Active | Not Active | Not Active | Not Active | Not Active | Not Active | Not Active | Not Active | Not Active | Not Active | – | – | – | – |
| CO/N=C(\C(=O)N[C@@H]1C(=O)N2C(C(=O)O)=C(COC(C)=O)CS[C@H]12)c1csc(N)n1 [CEFOTAXIME] | Not Active | Not Active | Not Active | Not Active | Not Active | Not Active | Not Active | Not Active | Not Active | Not Active | – | – | – | – |
| CNC1=Nc2ccc(Cl)cc2C(c2ccccc2)=[N+]([O-])C1 [CHLORDIAZEPOXIDE] | Not Active | Not Active | Not Active | Not Active | Not Active | Not Active | Not Active | Not Active | Not Active | Not Active | – | – | – | – |
| N=C(N)c1ccc(OCCCCCOc2ccc(C(=N)N)cc2)cc1 [PENTAMIDINE] | – | Not Active | Not Active | Not Active | Not Active | Not Active | Not Active | Not Active | Not Active | Not Active | – | – | – | – |
